Data on 13 molecules can be found in article PMC5271370, “A High-Content Assay Enables the Automated Screening and Identification of Small Molecules with Specific ALDH1A1-Inhibitory Activity” (PLoS ONE, 2017).

Read-outs that look alike come from different tables or passages of the source.

The target of test [1] is T1, Human ALDH1A1 (Homo sapiens, UniProt P00352).
T1 construct: made in house
T1 sequence (P00352 1-501): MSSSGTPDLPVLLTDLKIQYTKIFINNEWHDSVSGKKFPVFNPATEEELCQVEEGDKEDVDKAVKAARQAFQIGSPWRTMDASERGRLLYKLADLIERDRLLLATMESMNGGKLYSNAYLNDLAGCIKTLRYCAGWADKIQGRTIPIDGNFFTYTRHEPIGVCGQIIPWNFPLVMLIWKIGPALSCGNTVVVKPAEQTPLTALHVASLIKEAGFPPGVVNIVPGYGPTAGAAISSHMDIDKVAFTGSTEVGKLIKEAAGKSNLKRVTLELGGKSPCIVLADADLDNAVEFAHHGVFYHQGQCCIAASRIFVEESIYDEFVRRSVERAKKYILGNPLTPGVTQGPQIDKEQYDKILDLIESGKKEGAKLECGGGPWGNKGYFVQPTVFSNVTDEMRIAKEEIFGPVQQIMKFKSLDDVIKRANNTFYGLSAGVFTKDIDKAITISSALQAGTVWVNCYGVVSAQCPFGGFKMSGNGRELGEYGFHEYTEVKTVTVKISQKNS
Nature of the test: 1,536-well enzymatic assay (NADH fluorescence), ALDH1A1. The test is classed as biochemical. From the text: To validate our optimized assay, we assembled a set of 20 previously reported ALDH inhibitors, with varying degrees of target specificity (Table 1 and S4 Fig). […] Briefly, the assay measures the dehydrogenase activity of recombinant human ALDH1A1, ALDH1A2, ALDH1A3, ALDH2 or ALDH3A1 using NAD(P)^+ and either propionaldehyde or benzaldehyde as substrates. An orthogonal resorufin-based assay format was also run with isolated ALDH1A1 to rule out potential false positives due to intrinsic compound fluorescence.
Human ALDH1A1 and ALDH3A1 were expressed and purified as described elsewhere. Human ALDH2 was purchased from Abcam (ab87415). Human ALDH1A2 and ALDH1A3 were purchased from MyBioSource (MBS1005929; San Diego, CA) and ThermoFisher (11636H07E50), respectively. The inhibitory activity of compounds against ALDHs was measured according to protocols described previously. Briefly, 3 μL of enzyme (final concentrations of 20 nM for ALDH1A1, 50 nM for ALDH1A2, 50 nM for ALDH1A3, 75 nM for ALDH2 and 5 nM for ALDH3A1) in assay buffer (100 mM HEPES pH 7.5 with 0.01% Tween 20) were dispensed into a 1,536-well solid-bottom black plate (Greiner Bio One, Monroe, NC). […] Samples were incubated (room temperature, protected from light) for 15 minutes followed by a 1 μL substrate addition of NAD^+ and Propionaldehyde (final concentrations of 1 mM and 80 μM, respectively) for ALDH1A1, 1A2, 1A3, and ALDH2 or NADP^+ and benzaldehyde (final concentrations of 1 mM and 200 μM, respectively) for ALDH3A1. Plates were centrifuged at 1,000 rpm for 15 seconds, then read in kinetic mode on a ViewLux High-throughput CCD imager (PerkinElmer, Waltham, MA) equipped with standard UV fluorescence optics (340 nm excitation, 450 nm emission) for 5 (ALDH1A1, ALDH1A2, ALDH2, ALDH3A1) or 30 (ALDH1A3) minutes. The change in fluorescence intensity over the 5- or 30-minute reaction period was normalized against no-inhibitor and no-enzyme controls and the resulting percent inhibition data were fitted to a 4-parameter Hill equation. Bay-11 7085 was used as intraplate control. To account for artifacts due to intrinsic compound fluorescence in the above spectrum, compounds were also tested in an orthogonal resorufin assay format with optics of excitation 525 nm/emission 598 nm as described before. The same parameters as the NADH assay were used for the resorufin assay, with the addition of (final) 133 μg/mL diaphorase and 37 μM resazurin to the assay solution. Same controls were used in both formats.

Test [2] deals with ALDH2. The conditions noted are these: reported ALDH target 2; read-out: Reported Biochemical IC50, ALDH2; cited from earlier work.
The mark [3] stands for this setting: validation set, 20 nM enzyme, NAD+ and propionaldehyde, read-out: Biochemical IC50 ALDH1A1.
Setting [4] is: hits of dual cell-based screen (Table 2), read-out: Biochemical IC50 ALDH1A1.

A word on the IC50: it is the midpoint of a concentration-inhibition curve. For `CC(C)=CCCC(C)=CC=O` (mixture of isomers) [Citral], the IC50 in test [1] (setting [3]) came to 10.8 µM.

With `COc1ccc(C(=O)CCN(C)C)cc1F` [Aldi-2], the IC50 in test [2] was 6.4 µM; in test [1] (setting [3]), 0.15 µM. With `CC(C)(C)c1ccc(S(=O)(=O)/C=C/C#N)cc1` [Bay-11-7085], the IC50 in test [2] was 0.034 µM; in test [1] (setting [3]), 0.09 µM. Turning to `CCOc1ccc(NCC(=O)Nc2ccc(Cl)cc2C)cc1` [CID 725345], the IC50 in test [1] (setting [3]) stood at 0.77 µM. As to `COc1cccc2cc(C(=O)CC3(O)C(=O)N(Cc4ccccc4)c4ccccc43)c(=O)oc12` (stereo not shown) [CID 2929292], the IC50 in test [1] (setting [3]) stood at 0.29 µM. With `CCN(CC)c1ccc(C=O)cc1` [DEAB, 4-N,N-diethylaminobenzaldehyde], in test [2], the IC50 was 0.16 µM.

As to `O=c1c(-c2ccc(O)cc2)coc2cc(O[C@@H]3O[C@H](CO)[C@@H](O)[C@H](O)[C@H]3O)ccc12` [Daidzin], the IC50 in test [2] was 0.29 µM. In test [1] (Biochemical IC50 ALDH1A1, validation set, 20 nM enzyme, NAD+ and propionaldehyde), `Cc1cc2c(C(C)C)c(O)c(O)c(C=O)c2c(O)c1-c1c(C)cc2c(C(C)C)c(O)c(O)c(C=O)c2c1O` [Gossypol] had an IC50 of 25.6 µM.

Turning to `Nc1ccccc1C(=O)CC(N)C(=O)O` (stereo not shown) [Kynurenine], in test [1] (setting [3]), the IC50 is 40.5 µM. In the case of `C[S+](=O)([O-])c1ccc(Cn2c3c(c4cc(F)cc(F)c42)CCCC3CC(=O)O)cc1` [L-670596], the IC50 in test [1] (setting [4]) was 0.25 µM.

Consider `CC(C)N(C(=O)CCl)c1ccccc1` [Propachlor], for which, in test [1] (setting [4]), the IC50 was found to be 0.01 µM. Consider `O=C1Nc2ccccc2C1=O` [indoline-2,3-dione], for which, in test [1] (setting [3]), the IC50 is 0.01 µM. As to CVT-10216, the IC50 in test [2] is 0.029 µM; in test [1] (setting [3]), 19.1 µM.
